Among the data in patent publication US8420682B2, “N-phenylacetamide derivatives, which inhibit the enzyme SOAT-1, and pharmaceutical and cosmetic compositions containing them” (Galderma Research & Development, priority 2009, dated 2013) are IC50 values, retold here.

One may read the IC50 as the concentration that gives 50% inhibition. A higher IC50 goes with a need for much substance.

In the test the target is T1, enzyme ACAT-1 (Homo sapiens, UniProt P35610).
T1 construct: endogenous in cells; host or cells: HepG2
T1 sequence (P35610 1-550): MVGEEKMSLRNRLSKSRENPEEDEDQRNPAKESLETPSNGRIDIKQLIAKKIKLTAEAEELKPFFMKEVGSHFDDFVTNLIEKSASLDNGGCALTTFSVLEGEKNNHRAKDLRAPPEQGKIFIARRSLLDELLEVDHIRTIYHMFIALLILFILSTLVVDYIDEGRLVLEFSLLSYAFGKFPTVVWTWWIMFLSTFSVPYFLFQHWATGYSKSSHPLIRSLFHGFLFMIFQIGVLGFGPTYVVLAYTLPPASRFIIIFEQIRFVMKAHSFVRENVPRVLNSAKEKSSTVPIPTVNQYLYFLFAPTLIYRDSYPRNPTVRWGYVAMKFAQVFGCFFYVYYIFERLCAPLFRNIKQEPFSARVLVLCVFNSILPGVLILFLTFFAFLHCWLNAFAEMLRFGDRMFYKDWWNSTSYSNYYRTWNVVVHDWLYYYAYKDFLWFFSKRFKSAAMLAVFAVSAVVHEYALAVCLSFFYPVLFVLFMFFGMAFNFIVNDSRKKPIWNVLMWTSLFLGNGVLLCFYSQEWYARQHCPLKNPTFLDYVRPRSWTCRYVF
The experiment in a line: HepG2 NBD-cholesterol fluorescence test for inhibitory activity towards the enzyme ACAT-1 (SOAT-1). Format: cell-based. Conditions: HepG2 cells, NBD-cholesterol 1 μg/ml, incubation 6 hours at 37° C., fluorescence read (excitation 490 nm, emission 540 nm). The procedure: The compounds (I) according to the invention, and also the pharmaceutically acceptable salts, solvates and/or hydrates thereof, have inhibitory properties on the enzyme SOAT-1. This inhibitory activity on the enzyme SOAT-1 is measured according to a HepG2 primary […] test, as described in Example 7.
The compounds of formula (I) according to the invention were subjected to a test for evaluating their inhibitory activity towards the enzyme ACAT-1, inspired by the following publication: “Identification of ACAT1- and ACAT2-specific inhibitors using a novel, cell based fluorescence assay: individual ACAT uniqueness”, J. Lipid. Res. (2004) vol. 45, pages 378-386.
The principle of this test is based on the use of NBD-cholesterol, a cholesterol analogue whose fluorescence depends on its environment. When this molecule is in a polar environment, it is weakly fluorescent, whereas in a non-polar environment it is strongly fluorescent. Free NBD-cholesterol becomes inserted in cell membranes and is weakly fluorescent in this polar environment. When NBD-cholesterol is esterified with ACAT, the NBD-cholesterol ester enters non-polar lipid droplets and is then strongly fluorescent.
The method below is applied: HepG2 cells are incubated in the presence of NBD-cholesterol (1 μg/ml) and of the test compound of formula (I) in black transparent-bottomed 96-well plates, at a rate of 30 000 cells per well. After incubation for 6 hours at 37° C. under 5% CO2, the medium is removed by turning upside-down and the cells are washed with twice 100 μl of PBS. After addition of 50 μl of lysis buffer (10 mM NaPO4, 1% Igepal), the plates are shaken for 5 minutes and the fluorescence is read (excitation at 490 nm, emission at 540 nm) on a Fusion machine (Perkin-Elmer).
On to `CCOC(=O)c1ccc(N2C(=O)N(CC(=O)Nc3c(C(C)C)cccc3C(C)C)C(=O)C23CCCCC3)cc1` [Compound 1, 4-{3-[(2,6-Diisopropylphenylcarbamoyl)-methyl]-2,4-dioxo-1,3-diazaspiro[4.5]dec-1-yl}benzoic acid ethyl ester], for which the concentration for half-maximal inhibition (IC50) was 2.4 nM.
`CC(C)c1cccc(C(C)C)c1NC(=O)CN1C(=O)N(c2ccc(C#N)cc2)C2(CCCCC2)C1=O` [Compound 2, 2-[1-(4-Cyanophenyl)-2,4-dioxo-1,3-diaza-spiro[4.5]dec-3-yl]-N-(2,6-diisopropylphenyl)acetamide] gave an IC50 of 77 nM.
`Cc1ccc(N2C(=O)N(CC(=O)Nc3c(C(C)C)cccc3C(C)C)C(=O)C23CCCCC3)cc1C#N` [Compound 3, 2-[1-(3-cyano-4-methylphenyl)-2,4-dioxo-1,3-diaza-spiro[4.5]dec-3-yl]-N-(2,6-diisopropylphenyl)acetamide] showed a half-maximal inhibitory concentration (IC50) of 2.5 nM. Against the preceding compound, the IC50 is about 31-fold lower.
In turn, `CSc1ccc(N2C(=O)N(CC(=O)Nc3c(C(C)C)cccc3C(C)C)C(=O)C23CCCCC3)cc1` [Compound 4, N-(2,6-diisopropylphenyl)-2-[1-(4-methylsulfanyl-phenyl)-2,4-dioxo-1,3-diazaspiro[4.5]dec-3-yl]acetamide] had an IC50 of 1.5 nM.
Take `CC(C)c1cccc(C(C)C)c1NC(=O)CN1C(=O)N(c2ccc(S(C)(=O)=O)cc2)C2(CCCCC2)C1=O` [Compound 5, N-(2,6-Diisopropylphenyl)-2-[1-(4-methanesulfonylphenyl)-2,4-dioxo-1,3-diaza-spiro[4.5]dec-3-yl]acetamide]: the IC50 is 31 nM.
